According to article PMC9065678, “BI 1015550 is a PDE4B Inhibitor and a Clinical Drug Candidate for the Oral Treatment of Idiopathic Pulmonary Fibrosis” (Frontiers in Pharmacology, 2022):
Marks after values point to notes of the source that are not given here.

Legend:
[1] = molecular target: T1, PDE4A (Homo sapiens, UniProt P27815); assay: Recombinant PDE activity, scintillation proximity assay: PDE4A; assay type: biochemical; settings: substrate [3H]cAMP, means from n independent experiments
T1 construct: PDE4A (NG_029594, AA 156–886); made in house; host or cells: SF9 insect cells (baculovirus, Bac-To-Bac, pFastbac)
Procedure: For the preparation of human recombinant PDEs of interest, the Bac-To-Bac baculoviral expression system from Invitrogen (Carlsbad, CA, United States) was used according to the instruction manual. […] The plasmids were transformed into DH10Bac bacteria, SF9 insect cells were transfected with the bacmid DNA, and the resulting baculoviruses were stored and used for further rounds of infections. For protein production, SF9 cells were infected until a cytopathic effect was visible (after about 72 h), the SF9 cells were harvested and broken up by 3 freeze/thaw cycles, and by shearing 10 times through a 0.1 mm cannula using a syringe. […] The Phosphodiesterase Scintillation Proximity Assays (TRKQ7090 for [^3H]cAMP, GE Healthcare Europe GmbH, Chalfont St Giles, United Kingdom, and TRKQ7100 for [^3H]cGMP, Perkin Elmer, Waltham, MA, United States) were performed essentially according to the instruction manual. […] Assay solutions containing recombinant baculoviral-expressed PDE (to give an activity of 5.000–20.000 cpm corresponding to 5–20% of total activity added), 50 mmol/L Tris/HCl pH 7.5, 8.3 mmol/L MgCl2, 1.7 mmol/L EGTA, and 10 µL radiolabeled substrate (0.05 µCi in H2O) were incubated for 1 h at 30°C (final volume 100 μL).

[2] = system: silica-induced lung fibrosis; assay: Silica-induced lung inflammation and fibrosis in the mouse; assay type: in vivo; settings: mice
Procedure: BI 1015550 was given at doses of 0.25, 0.75, and 2.5 mg/kg b.i.d. in Natrosol 0.5% (10 mL/kg) starting from day 10 after silica instillation until day 30 (therapeutic regimen). 8-week-old BL6 mice (mixed sex, Janvier Labs, Le Genest-Saint-Isle, France) were used. Details of the experimental methods are described elsewhere ([Lo Re et al., 2010]). Briefly, mice received silica particles at 2.5 mg/mouse by intranasal instillation. Control mice received the respective saline solution by intranasal instillation. Mice were killed 30 days after silica administration and macroscopic changes were recorded at post-mortem analysis. Lung weight was measured, BALF for total cell and differential cell counts as well as myeloperoxidase (MPO) activity and keratinocyte-derived cytokine (KC, the counterpart of human GRO protein) determination was generated, and lung histology (staining with HE and chromotrope-aniline blue with semi-quantitative analysis for the estimation of inflammation, granuloma, and fibrosis scores was done.

[3] = system: Col1A1 mRNA expression; assay: TGF-β-induced Col1A1 mRNA expression in IPF lung fibroblasts (Taqman); assay type: cell-based, human; settings: IPF-LF, TGF-β 4 ng/mL, 48 h; read-out: IC50 TGF-β-induced Col1 mRNA expression
Procedure: Fibroblasts from donors with IPF (IPF-LF) (Asterand, Detroit, MI, United States) were grown in fibroblast basal medium (CC-3131, Lonza Walkersville, Inc., Walkersville, MD, United States) supplemented with FGM-2 SingleQuot Kit Supplements and Growth Factors (CC-4126, Lonza). Cells were grown in a humidified incubator at 37°C and 5% CO2. All assays were performed at passage 7 or 8. For assay set-up, cells were seeded in fibroblast growth medium plus supplements in assay-relevant densities. For TGF-β-stimulated assays, cells were seeded at 4,500 cells per well in 96-well plates. Proliferation assays were performed in 96-well plates at an initial seeding cell density on day 0 of 2,000 cells per well. After 24-h, the cell culture medium was changed to starvation medium (fibroblast basal medium without supplements). […]
For determination of Col1A1, Col3A1, and FN mRNA expression, IPF-LF cells were stimulated with TGF-β (4 ng/mL) for 48 h. […] Quantitative real-time polymerase chain reactions were set up using the TaqMan™ Fast Advanced Master Mix (Applied Biosystems, Carlsbad, CA, United States) and species-specific gene expression assays: Col1A1 #Hs00164004_m1 FAM, Col3A1 #Hs0094309_m1 FAM, FN #Hs01549976_m1 FAM, 18S #4310893E. […] Fold-change of gene expression was calculated by the Viia7 software (regulation based upon housekeeper).

[4] = 0.25 mg/kg b.i.d. oral day 10–30
[5] = 0.75 mg/kg b.i.d. oral day 10–30
[6] = 2.5 mg/kg b.i.d. oral day 10–30

T1 sequence (P27815 156-886): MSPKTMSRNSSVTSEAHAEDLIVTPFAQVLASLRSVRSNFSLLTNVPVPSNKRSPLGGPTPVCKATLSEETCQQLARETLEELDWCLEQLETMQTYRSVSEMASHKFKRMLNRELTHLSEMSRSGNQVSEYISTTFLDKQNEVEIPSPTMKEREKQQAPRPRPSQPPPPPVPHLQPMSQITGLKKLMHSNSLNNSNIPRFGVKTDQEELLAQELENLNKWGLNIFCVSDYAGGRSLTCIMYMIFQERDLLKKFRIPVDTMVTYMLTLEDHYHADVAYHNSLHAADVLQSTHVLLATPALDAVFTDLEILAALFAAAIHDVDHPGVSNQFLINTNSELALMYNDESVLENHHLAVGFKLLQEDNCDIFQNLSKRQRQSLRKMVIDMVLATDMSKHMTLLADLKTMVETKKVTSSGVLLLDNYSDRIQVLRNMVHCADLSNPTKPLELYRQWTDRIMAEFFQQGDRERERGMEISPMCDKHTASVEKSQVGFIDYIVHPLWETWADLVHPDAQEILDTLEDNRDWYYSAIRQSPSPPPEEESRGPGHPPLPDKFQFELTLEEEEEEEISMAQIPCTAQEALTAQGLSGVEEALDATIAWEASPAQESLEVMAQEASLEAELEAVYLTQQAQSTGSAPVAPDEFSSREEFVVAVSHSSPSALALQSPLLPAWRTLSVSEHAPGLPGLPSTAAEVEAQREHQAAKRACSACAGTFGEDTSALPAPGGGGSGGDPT

IC50 [1]: 248 nM
Compound: [O-][S+]1CCc2nc(N3CCC(c4ncc(Cl)cn4)CC3)nc(NC3(CO)CCC3)c21 (centres unmarked) [BI 1015550]
Fibrosis score, % change related to control animals [2, 4]: 5%
Granuloma score, % change related to control animals [2, 4]: –16%
Inflammation score, % change related to control animals [2, 4]: –4%
KC in BALF, % change related to control animals [2, 4]: 4%
Lung weight, % change related to control animals [2, 4]: –57%
Lymphocytes in BALF, % change related to control animals [2, 4]: –18%
MPO in BALF, % change related to control animals [2, 4]: –2%
Macrophages in BALF, % change related to control animals [2, 4]: –29%
Neutrophils in BALF, % change related to control animals [2, 4]: –35%
Total cells in BALF, % change related to control animals [2, 4]: –27%
Fibrosis score, % change related to control animals [2, 5]: –10%
Granuloma score, % change related to control animals [2, 5]: –11%
Inflammation score, % change related to control animals [2, 5]: 4%
KC in BALF, % change related to control animals [2, 5]: –39%
Lung weight, % change related to control animals [2, 5]: –46%
Lymphocytes in BALF, % change related to control animals [2, 5]: 49%
MPO in BALF, % change related to control animals [2, 5]: –22%
Macrophages in BALF, % change related to control animals [2, 5]: –11%
Neutrophils in BALF, % change related to control animals [2, 5]: 8%
Total cells in BALF, % change related to control animals [2, 5]: –13%
Fibrosis score, % change related to control animals [2, 6]: –15%
Granuloma score, % change related to control animals [2, 6]: –32%
Inflammation score, % change related to control animals [2, 6]: –19%
KC in BALF, % change related to control animals [2, 6]: –27%
Lung weight, % change related to control animals [2, 6]: –46%
Lymphocytes in BALF, % change related to control animals [2, 6]: –12%
MPO in BALF, % change related to control animals [2, 6]: –34%
Macrophages in BALF, % change related to control animals [2, 6]: –38* %
Neutrophils in BALF, % change related to control animals [2, 6]: –46* %
Total cells in BALF, % change related to control animals [2, 6]: –28%
IC50 [3]: 269 nM
